Legend:
persian speedwell [1] = experiment: Test Example 4: herbicidal effect by soil treatment (Table 19, symbol R); assay type: in vivo, Persian speedwell (Veronica persica); settings: amount of applied herbicide 320 g/ha
Summary of the method: (§1)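 Pre-emergence style soil spray: seeds under ~1.5 cm sterilized diluvial soil received a uniform coat of emulsion diluted to the predetermined herbicide amount. Greenhouse 25–30° C; readout at week three on previously defined criteria.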

Italian ryegrass [2] = experiment: Test Example 4: herbicidal effect by soil treatment (Table 19, symbol K); assay type: in vivo, Italian ryegrass (Lolium multiflorum); settings: amount of applied herbicide 320 g/ha
Summary of the method: as §1

lambsquarters [3] = experiment: Test Example 4: herbicidal effect by soil treatment (Table 19, symbol O); assay type: in vivo, lambsquarters (Chenopodium album); settings: amount of applied herbicide 320 g/ha
Summary of the method: as §1

southern crabgrass [4] = experiment: Test Example 4: herbicidal effect by soil treatment (Table 19, symbol F); assay type: in vivo, southern crabgrass (Digitaria ciliaris); settings: amount of applied herbicide 320 g/ha
Summary of the method: as §1

windgrass [5] = experiment: Test Example 4: herbicidal effect by soil treatment (Table 19, symbol L); assay type: in vivo, windgrass (Apera spica-venti); settings: amount of applied herbicide 320 g/ha
Summary of the method: as §1

wild oat [6] = experiment: Test Example 4: herbicidal effect by soil treatment (Table 19, symbol I); assay type: in vivo, wild oat (Avena fatua); settings: amount of applied herbicide 320 g/ha
Summary of the method: as §1

green foxtail [7] = experiment: Test Example 4: herbicidal effect by soil treatment (Table 19, symbol G); assay type: in vivo, green foxtail (Setaria viridis); settings: amount of applied herbicide 320 g/ha
Summary of the method: as §1

velvetleaf [8] = experiment: Test Example 4: herbicidal effect by soil treatment (Table 19, symbol M); assay type: in vivo, velvetleaf (Abutilon theophrasti); settings: amount of applied herbicide 320 g/ha
Summary of the method: as §1

oval-leafed pondweed [9] = experiment: Test Example 2: herbicidal activity, application during weed generation under submerged conditions (Table 17, symbol C); assay type: in vivo, oval-leafed pondweed (Monochoria vaginalis); settings: AAH 320 g/ha; application during weed generation, submerged conditions
Summary of the method: (§2)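 Herbicide emulsion, diluted with water to the chosen amount, is applied onto 4 cm floodwater over alluvial soil where the weeds were co-sown and raised at 25–30° C. Application timing: 1–2 leaves. Assessment: three weeks afterwards.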

late watergrass [10] = experiment: Test Example 2: herbicidal activity, application during weed generation under submerged conditions (Table 17, symbol A); assay type: in vivo, late watergrass (Echinochloa oryzicola); settings: AAH 320 g/ha; application during weed generation, submerged conditions
Summary of the method: as §2

rice flat sedge = experiment: Test Example 3: herbicidal effect by foliage application, Wagner pot (Table 18, symbol E); assay type: in vivo, rice flat sedge (Cyperus iria)
Summary of the method: (§3)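 Plants were sown in alluvial soil held under 0.1–0.5 cm standing water and grown 14 days in a greenhouse at 25–30 °C. An emulsifiable formulation, water-diluted to the set dose, was then sprayed onto the foliage, and effects were scored three weeks later using previously defined criteria.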

Japanese bulrush [11] = experiment: Test Example 1: herbicidal activity, application before weed generation under submerged conditions (Table 16, symbol B); assay type: in vivo, Japanese bulrush (Schoenoplectus juncoides); settings: 320 g/ha applied herbicide
Summary of the method: (§4)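 Submerged Wagner pots (alluvial soil, 4 cm water) sown with weed seeds and planted with 2.5-leaf rice seedlings; emulsifiable concentrate diluted in water applied to water surface on sowing day. Held in greenhouse at 25-30 °C; injury scored 0-5 by herbicidal rate after three weeks.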

blackgrass [12] = experiment: Test Example 4: herbicidal effect by soil treatment (Table 19, symbol J); assay type: in vivo, blackgrass (Alopecurus myosuroides); settings: amount of applied herbicide 320 g/ha
Summary of the method: as §1

late watergrass [13] = experiment: Test Example 1: herbicidal activity, application before weed generation under submerged conditions (Table 16, symbol A); assay type: in vivo, late watergrass (Echinochloa oryzicola); settings: 320 g/ha applied herbicide
Summary of the method: as §4

barnyard grass [14] = experiment: Test Example 3: herbicidal effect by foliage application, Wagner pot (Table 18, symbol H); assay type: in vivo, barnyard grass (Echinochloa crus-galli)
Summary of the method: as §3

oval-leafed pondweed [15] = experiment: Test Example 1: herbicidal activity, application before weed generation under submerged conditions (Table 16, symbol C); assay type: in vivo, oval-leafed pondweed (Monochoria vaginalis); settings: 320 g/ha applied herbicide
Summary of the method: as §4

Chinese sprangletop = experiment: Test Example 3: herbicidal effect by foliage application, Wagner pot (Table 18, symbol D); assay type: in vivo, chinese sprangletop (Leptochloa chinensis)
Summary of the method: as §3

Japanese bulrush [16] = experiment: Test Example 2: herbicidal activity, application during weed generation under submerged conditions (Table 17, symbol B); assay type: in vivo, Japanese bulrush (Schoenoplectus juncoides); settings: AAH 320 g/ha; application during weed generation, submerged conditions
Summary of the method: as §2

barnyard grass [17] = experiment: Test Example 4: herbicidal effect by soil treatment (Table 19, symbol H); assay type: in vivo, barnyard grass (Echinochloa crus-galli); settings: amount of applied herbicide 320 g/ha
Summary of the method: as §1

redroot pigweed = experiment: Test Example 4: herbicidal effect by soil treatment (Table 19, symbol N); assay type: in vivo, redroot pigweed (Amaranthus retroflexus); settings: amount of applied herbicide 320 g/ha
Summary of the method: as §1

chickweed = experiment: Test Example 4: herbicidal effect by soil treatment (Table 19, symbol P); assay type: in vivo, common chickweed (Stellaria media); settings: amount of applied herbicide 320 g/ha
Summary of the method: as §1

persian speedwell [18] = experiment: Test Example 5: herbicidal effect by foliage application, plastic box (Table 20, symbol R); assay type: in vivo, Persian speedwell (Veronica persica); settings: foliage application, 320 g/ha, three weeks after application
Summary of the method: (§5)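 Plants were sown into sterilized diluvial soil under about 1.5 cm cover and kept in a greenhouse at 25° C. to 30° C. Fourteen days on, foliage received an even spray of the diluted emulsion. Herbicidal or crop effect was judged three weeks afterwards.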

blackgrass [19] = experiment: Test Example 5: herbicidal effect by foliage application, plastic box (Table 20, symbol J); assay type: in vivo, blackgrass (Alopecurus myosuroides); settings: foliage application, 320 g/ha, three weeks after application
Summary of the method: as §5

lambsquarters [20] = experiment: Test Example 5: herbicidal effect by foliage application, plastic box (Table 20, symbol O); assay type: in vivo, lambsquarters (Chenopodium album); settings: foliage application, 320 g/ha, three weeks after application
Summary of the method: as §5

Italian ryegrass [21] = experiment: Test Example 5: herbicidal effect by foliage application, plastic box (Table 20, symbol K); assay type: in vivo, Italian ryegrass (Lolium multiflorum); settings: foliage application, 320 g/ha, three weeks after application
Summary of the method: as §5

green foxtail [22] = experiment: Test Example 5: herbicidal effect by foliage application, plastic box (Table 20, symbol G); assay type: in vivo, green foxtail (Setaria viridis); settings: foliage application, 320 g/ha, three weeks after application
Summary of the method: as §5

wild oat [23] = experiment: Test Example 5: herbicidal effect by foliage application, plastic box (Table 20, symbol I); assay type: in vivo, wild oat (Avena fatua); settings: foliage application, 320 g/ha, three weeks after application
Summary of the method: as §5

false cleavers = experiment: Test Example 4: herbicidal effect by soil treatment (Table 19, symbol Q); assay type: in vivo, false cleavers (Galium spurium); settings: amount of applied herbicide 320 g/ha
Source text: [Test Example 4] Herbicidal Effect Test by Soil Treatment
Sterilized diluvial soil was placed in a plastic box having a length of 21 cm, a width of 13 cm, and a depth of 7 cm. The seeds of each of southern crabgrass, green foxtail, barnyard grass, wild oat, blackgrass, Italian ryegrass, windgrass, velvetleaf, redroot pigweed, lambsquarters, chickweed, false cleavers, persian speedwell, corn, soybean, rice, wheat, beet, and rapeseed were sowed in a spot-like manner and covered with the soil having a thickness of about 1.5 cm. Subsequently, the emulsion agent of the compound of the present invention prepared according to Formulation Example 2 was diluted with water so as to achieve a predetermined herbicide amount, and the diluted emulsion agent was uniformly applied to the surface of the soil with a small-sized spray. The plastic box was placed in a greenhouse at 25° C. to 30° C. for growth of the plants. Three weeks after the herbicide application, the effect of the herbicide on each plant was evaluated according to the criteria of Test Example 1.

windgrass [24] = experiment: Test Example 5: herbicidal effect by foliage application, plastic box (Table 20, symbol L); assay type: in vivo, windgrass (Apera spica-venti); settings: foliage application, 320 g/ha, three weeks after application
Summary of the method: as §5

barnyard grass [25] = experiment: Test Example 5: herbicidal effect by foliage application, plastic box (Table 20, symbol H); assay type: in vivo, barnyard grass (Echinochloa crus-galli); settings: foliage application, 320 g/ha, three weeks after application
Summary of the method: as §5

velvetleaf [26] = experiment: Test Example 5: herbicidal effect by foliage application, plastic box (Table 20, symbol M); assay type: in vivo, velvetleaf (Abutilon theophrasti); settings: foliage application, 320 g/ha, three weeks after application
Summary of the method: as §5

southern crabgrass [27] = experiment: Test Example 5: herbicidal effect by foliage application, plastic box (Table 20, symbol F); assay type: in vivo, southern crabgrass (Digitaria ciliaris); settings: foliage application, 320 g/ha, three weeks after application
Summary of the method: as §5

[28] = amount of applied herbicide 320 g/ha

## CCCC(=O)Oc1c(C)nn(C)c(=O)c1-c1c(-c2ccc(C(F)(F)F)cc2F)sc2ccc(F)cc12 [2-355]
Persian speedwell [1]
  herbicidal effect, R: persian speedwell: 3 (Herbicidal rate of 40% or more and less than 70%)
Italian ryegrass [2]
  herbicidal effect, K: Italian ryegrass: 4 (Herbicidal rate of 70% or more and less than 90%)
Lambsquarters [3]
  herbicidal effect, O: lambsquarters: 3 (Herbicidal rate of 40% or more and less than 70%)
Southern crabgrass [4]
  herbicidal effect, F: southern crabgrass: 0 (Herbicidal rate of 5% or less (almost no effect))
Windgrass [5]
  herbicidal effect, L: windgrass: 3 (Herbicidal rate of 40% or more and less than 70%)
Wild oat [6]
  herbicidal effect, I: wild oat: 0 (Herbicidal rate of 5% or less (almost no effect))
Green foxtail [7]
  herbicidal effect, G: green foxtail: 0 (Herbicidal rate of 5% or less (almost no effect))
Velvetleaf [8]
  herbicidal effect, M: velvetleaf: 0 (Herbicidal rate of 5% or less (almost no effect))
oval-leafed pondweed [9]
  herbicidal effect rating, C: oval-leafed pondweed: 3 (Herbicidal rate of 40% or more and less than 70%)
Late watergrass [10]
  herbicidal effect rating, A: late watergrass: 3 (Herbicidal rate of 40% or more and less than 70%)
Rice flat sedge; [28]
  herbicidal effect on E: rice flat sedge: 5 (Herbicidal rate of 90% or more (almost completely withered))
Japanese bulrush [11]
  Herbicidal effect on B: Japanese bulrush (grade 0-5): 3 (Herbicidal rate of 40% or more and less than 70%)
Blackgrass [12]
  herbicidal effect, J: blackgrass: 0 (Herbicidal rate of 5% or less (almost no effect))
Late watergrass [13]
  Herbicidal effect on A: late watergrass (grade 0-5): 4 (Herbicidal rate of 70% or more and less than 90%)
Barnyard grass [14]; [28]
  herbicidal effect on H: barnyard grass: 5 (Herbicidal rate of 90% or more (almost completely withered))
oval-leafed pondweed [15]
  Herbicidal effect on C: oval-leafed pondweed (grade 0-5): 0 (Herbicidal rate of 5% or less (almost no effect))
Chinese sprangletop; [28]
  herbicidal effect on D: Chinese sprangletop: 5 (Herbicidal rate of 90% or more (almost completely withered))
Japanese bulrush [16]
  herbicidal effect rating, B: Japanese bulrush: 3 (Herbicidal rate of 40% or more and less than 70%)
Barnyard grass [17]
  herbicidal effect, H: barnyard grass: 0 (Herbicidal rate of 5% or less (almost no effect))
Redroot pigweed
  herbicidal effect, N: redroot pigweed: 0 (Herbicidal rate of 5% or less (almost no effect))
chickweed
  herbicidal effect, P: chickweed: 3 (Herbicidal rate of 40% or more and less than 70%)

## Cc1nn(C)c(=O)c(-c2c(-c3ccc(Cl)cc3)sc3cc(F)c(F)cc23)c1O [5-082]
Italian ryegrass [2]
  K: Italian ryegrass, herbicidal effect grade: 4 (Herbicidal rate of 70% or more and less than 90%)
Persian speedwell [18]
  herbicidal effect on persian speedwell (R): 5 (Herbicidal rate of 90% or more (almost completely withered))
Lambsquarters [3]
  O: lambsquarters, herbicidal effect grade: 3 (Herbicidal rate of 40% or more and less than 70%)
Southern crabgrass [4]
  F: southern crabgrass, herbicidal effect grade: 0 (Herbicidal rate of 5% or less (almost no effect))
Windgrass [5]
  L: windgrass, herbicidal effect grade: 4 (Herbicidal rate of 70% or more and less than 90%)
Blackgrass [19]
  herbicidal effect on blackgrass (J): 3 (Herbicidal rate of 40% or more and less than 70%)
Wild oat [6]
  I: wild oat, herbicidal effect grade: 0 (Herbicidal rate of 5% or less (almost no effect))
Green foxtail [7]
  G: green foxtail, herbicidal effect grade: 1 (Herbicidal rate of 5% or more and less than 20%)
Velvetleaf [8]
  M: velvetleaf, herbicidal effect grade: 0 (Herbicidal rate of 5% or less (almost no effect))
Lambsquarters [20]
  herbicidal effect on lambsquarters (O): 5 (Herbicidal rate of 90% or more (almost completely withered))
Rice flat sedge; 320 g/ha
  herbicidal effect on rice flat sedge (E): 4 (Herbicidal rate of 70% or more and less than 90%)
Italian ryegrass [21]
  herbicidal effect on Italian ryegrass (K): 5 (Herbicidal rate of 90% or more (almost completely withered))
Green foxtail [22]
  herbicidal effect on green foxtail (G): 3 (Herbicidal rate of 40% or more and less than 70%)
Blackgrass [12]
  J: blackgrass, herbicidal effect grade: 0 (Herbicidal rate of 5% or less (almost no effect))
Barnyard grass [14]; 320 g/ha
  herbicidal effect on barnyard grass (H): 5 (Herbicidal rate of 90% or more (almost completely withered))
Wild oat [23]
  herbicidal effect on wild oat (I): 3 (Herbicidal rate of 40% or more and less than 70%)
False cleavers
  Q: false cleavers, herbicidal effect grade: 3 (Herbicidal rate of 40% or more and less than 70%)
Chinese sprangletop; 320 g/ha
  herbicidal effect on Chinese sprangletop (D): 4 (Herbicidal rate of 70% or more and less than 90%)
Windgrass [24]
  herbicidal effect on windgrass (L): 5 (Herbicidal rate of 90% or more (almost completely withered))
Barnyard grass [17]
  H: barnyard grass, herbicidal effect grade: 0 (Herbicidal rate of 5% or less (almost no effect))
Redroot pigweed
  N: redroot pigweed, herbicidal effect grade: 4 (Herbicidal rate of 70% or more and less than 90%)
Barnyard grass [25]
  herbicidal effect on barnyard grass (H): 4 (Herbicidal rate of 70% or more and less than 90%)
Velvetleaf [26]
  herbicidal effect on velvetleaf (M): 5 (Herbicidal rate of 90% or more (almost completely withered))
Southern crabgrass [27]
  herbicidal effect on southern crabgrass (F): 3 (Herbicidal rate of 40% or more and less than 70%)
